Assay results from ChEMBL document CHEMBL3822358 (J Med Chem, 2016).
The source made the active and inactive calls. The calls are words filed in the database; no cut-off is given here.

What was measured:
animal or person [1] = conditions: Homo sapiens, KARPAS-299, po, 312 h, read-out: TGI
Description: Antitumor activity against human KARPAS299 cells expressing NMP-ALK fusion protein xenografted in SCID/beige mouse assessed as tumor growth inhibition at 50 mg/kg, po administered once daily for 13 days relative to untreated control

[2] = Half life in CD rat at 10 mg/kg, po by LC-MS/MS analysis; assay type: ADME, organism-based; conditions: in vivo
[3] = Clearance in CD rat at 3 mg/kg, iv by LC-MS/MS analysis; assay type: ADME, organism-based; conditions: in vivo
[4] = Half life in mouse at 10 mg/kg, po by LC-MS/MS analysis; assay type: ADME, organism-based; conditions: in vivo
[5] = molecular target: T1, ALK tyrosine kinase receptor (Homo sapiens, UniProt Q9UM73); experiment: Inhibition of ALK phosphorylation in mouse xenografted with human KARPAS299 cells assessed as p-ALK level at 25 mg/kg, po administered as single dose measured after 8 hrs relative to 2 hrs vehicle-treated tumor; assay type: organism-based; design: scale not given: the % may be the effect or the level left; conditions: KARPAS-299
[6] = Volume of distribution at steady state in CD rat at 3 mg/kg, iv by LC-MS/MS analysis; assay type: ADME, organism-based; conditions: CD, in vivo, read-out: Vdss
animal or person [7] = conditions: Homo sapiens, KARPAS-299, po, 312 h, read-out: TGI; remark: listed apart in the source
Description: Antitumor activity against human KARPAS299 cells expressing NMP-ALK fusion protein xenografted in SCID/beige mouse assessed as tumor growth inhibition at 25 mg/kg, po administered once daily for 13 days relative to untreated control

cells [8] = conditions: Homo sapiens, KARPAS-299, 72 h
Description: Antiproliferative activity against human ALK-positive KARPAS299 cells assessed as reduction in cell viability measured after 72 hrs by CellTiter 96 aqueous one solution cell proliferation assay

[9] = AUC (0 to 24 hrs) in mouse at 10 mg/kg, po by LC-MS/MS analysis; assay type: ADME, organism-based; design: time < 24 hr, dose 10 mg/kg, route oral; conditions: in vivo
[10] = Oral bioavailability in CD rat at 10 mg/kg by LC-MS/MS analysis; assay type: ADME, organism-based; conditions: in vivo
[11] = molecular target: T1, ALK tyrosine kinase receptor; experiment: Inhibition of ALK phosphorylation in mouse xenografted with human KARPAS299 cells assessed as p-ALK level at 25 mg/kg, po administered as single dose measured after 16 hrs relative to 2 hrs vehicle-treated tumor; assay type: organism-based; design: scale not given: the % may be the effect or the level left; conditions: KARPAS-299
cells [12] = conditions: Homo sapiens, U-937, 72 h
Description: Antiproliferative activity against human ALK-negative U937 cells assessed as reduction in cell viability measured after 72 hrs by CellTiter 96 aqueous one solution cell proliferation assay

[13] = Cmax in mouse at 10 mg/kg, po by LC-MS/MS analysis; assay type: ADME, organism-based; design: dose 10 mg/kg, route oral; conditions: in vivo
[14] = Cmax in CD rat at 10 mg/kg, po by LC-MS/MS analysis; assay type: ADME, organism-based; design: dose 10 mg/kg, route oral; conditions: in vivo
[15] = molecular target: T1, ALK tyrosine kinase receptor
Target sequence in this assay (Q9UM73 whole entry): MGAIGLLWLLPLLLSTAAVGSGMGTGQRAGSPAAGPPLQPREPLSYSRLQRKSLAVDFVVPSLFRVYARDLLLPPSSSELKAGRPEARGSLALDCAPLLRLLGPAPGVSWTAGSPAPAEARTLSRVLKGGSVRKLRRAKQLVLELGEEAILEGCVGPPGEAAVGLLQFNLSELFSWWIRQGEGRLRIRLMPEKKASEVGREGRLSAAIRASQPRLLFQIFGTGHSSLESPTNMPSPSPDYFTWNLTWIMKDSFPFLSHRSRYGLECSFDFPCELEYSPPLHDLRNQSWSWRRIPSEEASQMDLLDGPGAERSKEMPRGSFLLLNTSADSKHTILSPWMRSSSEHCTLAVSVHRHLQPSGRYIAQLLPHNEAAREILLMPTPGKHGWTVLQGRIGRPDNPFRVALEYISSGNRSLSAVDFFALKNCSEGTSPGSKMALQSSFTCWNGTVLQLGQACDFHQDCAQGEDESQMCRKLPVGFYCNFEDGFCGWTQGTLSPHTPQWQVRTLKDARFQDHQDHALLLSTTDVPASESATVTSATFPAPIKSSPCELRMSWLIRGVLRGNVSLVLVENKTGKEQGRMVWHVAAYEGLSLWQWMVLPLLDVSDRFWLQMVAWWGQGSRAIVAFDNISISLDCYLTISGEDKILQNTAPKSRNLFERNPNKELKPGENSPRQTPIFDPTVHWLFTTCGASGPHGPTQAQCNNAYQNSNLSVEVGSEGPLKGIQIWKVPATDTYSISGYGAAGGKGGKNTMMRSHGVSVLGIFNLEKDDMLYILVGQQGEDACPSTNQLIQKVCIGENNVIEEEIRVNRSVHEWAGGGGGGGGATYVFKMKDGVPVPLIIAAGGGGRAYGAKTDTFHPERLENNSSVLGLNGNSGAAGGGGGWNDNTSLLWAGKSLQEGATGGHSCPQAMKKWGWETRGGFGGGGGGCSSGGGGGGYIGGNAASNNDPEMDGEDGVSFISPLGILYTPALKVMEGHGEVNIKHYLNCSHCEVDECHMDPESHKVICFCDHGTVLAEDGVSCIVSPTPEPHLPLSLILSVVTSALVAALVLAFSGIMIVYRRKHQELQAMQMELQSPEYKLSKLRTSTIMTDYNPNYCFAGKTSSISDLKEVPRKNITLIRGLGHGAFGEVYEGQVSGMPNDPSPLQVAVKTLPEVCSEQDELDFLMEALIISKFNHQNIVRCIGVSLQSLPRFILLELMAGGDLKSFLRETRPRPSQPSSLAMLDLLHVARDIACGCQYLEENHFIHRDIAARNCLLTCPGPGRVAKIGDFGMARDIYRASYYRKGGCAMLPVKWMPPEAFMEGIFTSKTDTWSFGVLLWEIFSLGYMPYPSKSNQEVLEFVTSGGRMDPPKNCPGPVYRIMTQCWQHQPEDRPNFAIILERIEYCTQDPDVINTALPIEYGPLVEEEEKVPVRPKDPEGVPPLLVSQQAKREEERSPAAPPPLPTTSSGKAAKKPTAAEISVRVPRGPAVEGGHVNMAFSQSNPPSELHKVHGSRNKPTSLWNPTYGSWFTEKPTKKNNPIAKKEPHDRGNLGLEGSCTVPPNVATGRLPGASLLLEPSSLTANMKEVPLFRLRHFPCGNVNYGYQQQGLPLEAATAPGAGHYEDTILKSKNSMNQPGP
Description: Inhibition of human ALK using poly[Glu:Tyr] (4:1) as substrate and [gamma-33P]ATP measured after 1 hr

[16] = Half life in CD rat at 3 mg/kg, iv by LC-MS/MS analysis; assay type: ADME, organism-based; conditions: CD, in vivo
Insulin receptor = Insulin receptor (Homo sapiens, UniProt P06213)
Chain of Insulin receptor (P06213 28-758 limits assumed): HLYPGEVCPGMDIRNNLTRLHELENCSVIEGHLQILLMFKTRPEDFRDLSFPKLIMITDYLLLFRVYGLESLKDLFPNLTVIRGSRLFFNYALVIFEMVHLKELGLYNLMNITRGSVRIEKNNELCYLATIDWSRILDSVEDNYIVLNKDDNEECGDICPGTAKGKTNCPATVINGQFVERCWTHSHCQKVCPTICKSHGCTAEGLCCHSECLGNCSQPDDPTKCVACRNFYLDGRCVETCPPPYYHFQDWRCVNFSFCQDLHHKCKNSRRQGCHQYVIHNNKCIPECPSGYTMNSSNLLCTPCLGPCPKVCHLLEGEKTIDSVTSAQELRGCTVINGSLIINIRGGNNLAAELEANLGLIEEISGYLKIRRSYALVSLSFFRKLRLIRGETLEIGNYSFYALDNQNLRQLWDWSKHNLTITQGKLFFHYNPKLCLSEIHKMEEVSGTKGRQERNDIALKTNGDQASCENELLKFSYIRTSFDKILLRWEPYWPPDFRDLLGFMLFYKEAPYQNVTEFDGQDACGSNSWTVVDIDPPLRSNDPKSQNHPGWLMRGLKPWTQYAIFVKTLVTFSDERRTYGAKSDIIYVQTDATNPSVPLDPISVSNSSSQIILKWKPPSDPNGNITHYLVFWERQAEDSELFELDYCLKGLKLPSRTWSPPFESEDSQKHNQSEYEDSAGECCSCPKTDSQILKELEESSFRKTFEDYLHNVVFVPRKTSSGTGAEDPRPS
Chain of Insulin receptor (P06213 763-1382 limits assumed): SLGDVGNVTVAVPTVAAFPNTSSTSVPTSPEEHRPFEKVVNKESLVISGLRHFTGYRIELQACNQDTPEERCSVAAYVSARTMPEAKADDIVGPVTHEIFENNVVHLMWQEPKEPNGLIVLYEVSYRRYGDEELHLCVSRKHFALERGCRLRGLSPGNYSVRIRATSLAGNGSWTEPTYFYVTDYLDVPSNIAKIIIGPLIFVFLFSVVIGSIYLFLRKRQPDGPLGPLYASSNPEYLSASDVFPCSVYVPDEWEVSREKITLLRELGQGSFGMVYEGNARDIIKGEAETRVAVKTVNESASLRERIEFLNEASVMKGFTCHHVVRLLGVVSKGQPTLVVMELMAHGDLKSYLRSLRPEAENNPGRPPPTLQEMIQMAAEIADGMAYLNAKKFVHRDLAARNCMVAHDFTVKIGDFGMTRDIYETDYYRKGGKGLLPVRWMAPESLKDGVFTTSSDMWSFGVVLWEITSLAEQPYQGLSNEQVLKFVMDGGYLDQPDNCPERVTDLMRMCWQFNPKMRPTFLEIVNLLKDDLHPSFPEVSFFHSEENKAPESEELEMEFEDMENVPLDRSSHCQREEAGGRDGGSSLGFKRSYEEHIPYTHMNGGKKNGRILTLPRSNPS
Description: Inhibition of human InsR using myelin basic protein as substrate and [gamma-33P]ATP measured after 1 hr

[17] = molecular target: Insulin-like growth factor 1 receptor (Homo sapiens, UniProt P08069)
Chain of Insulin-like growth factor 1 receptor (P08069 31-736 limits assumed): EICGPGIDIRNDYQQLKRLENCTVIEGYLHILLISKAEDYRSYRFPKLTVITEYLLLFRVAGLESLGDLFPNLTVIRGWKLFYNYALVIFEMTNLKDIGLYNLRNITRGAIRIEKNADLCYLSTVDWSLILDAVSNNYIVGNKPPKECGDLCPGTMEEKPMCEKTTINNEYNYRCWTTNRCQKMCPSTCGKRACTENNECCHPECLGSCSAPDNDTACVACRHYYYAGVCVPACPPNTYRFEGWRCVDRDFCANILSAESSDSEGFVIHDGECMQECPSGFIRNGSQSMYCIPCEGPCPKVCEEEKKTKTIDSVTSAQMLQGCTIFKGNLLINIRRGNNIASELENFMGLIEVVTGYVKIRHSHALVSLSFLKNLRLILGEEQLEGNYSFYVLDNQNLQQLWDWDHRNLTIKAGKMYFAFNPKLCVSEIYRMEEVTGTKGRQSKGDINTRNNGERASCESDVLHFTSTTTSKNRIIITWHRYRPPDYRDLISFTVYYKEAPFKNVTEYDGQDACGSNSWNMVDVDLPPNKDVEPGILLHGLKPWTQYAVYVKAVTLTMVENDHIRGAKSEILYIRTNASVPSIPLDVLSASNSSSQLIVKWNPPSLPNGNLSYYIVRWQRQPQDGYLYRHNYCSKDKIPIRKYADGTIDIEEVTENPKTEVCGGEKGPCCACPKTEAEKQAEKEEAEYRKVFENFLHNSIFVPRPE
Chain of Insulin-like growth factor 1 receptor (P08069 741-1367 limits assumed): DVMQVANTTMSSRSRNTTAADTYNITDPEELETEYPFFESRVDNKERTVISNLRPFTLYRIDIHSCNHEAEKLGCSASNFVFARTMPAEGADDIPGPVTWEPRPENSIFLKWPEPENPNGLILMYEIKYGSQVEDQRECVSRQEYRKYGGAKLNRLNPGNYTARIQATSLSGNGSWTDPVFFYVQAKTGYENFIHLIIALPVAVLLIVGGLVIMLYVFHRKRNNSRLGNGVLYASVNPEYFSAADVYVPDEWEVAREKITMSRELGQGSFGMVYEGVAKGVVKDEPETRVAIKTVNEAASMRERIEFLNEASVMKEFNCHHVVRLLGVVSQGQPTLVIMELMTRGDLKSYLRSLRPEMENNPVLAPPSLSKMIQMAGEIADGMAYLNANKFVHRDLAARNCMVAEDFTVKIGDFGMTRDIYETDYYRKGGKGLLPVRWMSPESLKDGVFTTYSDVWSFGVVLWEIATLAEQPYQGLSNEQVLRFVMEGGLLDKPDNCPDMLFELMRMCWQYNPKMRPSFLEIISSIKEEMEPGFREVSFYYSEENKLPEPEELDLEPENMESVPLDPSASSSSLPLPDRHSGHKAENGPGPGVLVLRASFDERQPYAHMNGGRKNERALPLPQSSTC

animal or person [18] = conditions: Homo sapiens, KARPAS-299, po, 312 h, read-out: TGI; remark: listed apart in the source
Description: Antitumor activity against human KARPAS299 cells expressing NMP-ALK fusion protein xenografted in SCID/beige mouse assessed as tumor growth inhibition at 10 mg/kg, po administered once daily for 13 days relative to untreated control

[19] = AUC (0 to infinity) in CD rat at 10 mg/kg, po by LC-MS/MS analysis; assay type: ADME, organism-based; design: dose 10 mg/kg, route oral, time infinity; conditions: in vivo
[20] = AUC (0 to infinity) in CD rat at 3 mg/kg, iv by LC-MS/MS analysis; assay type: ADME, organism-based; design: dose 3 mg/kg, time infinity, route intravenous; conditions: CD, in vivo
[21] = molecular target: T1, ALK tyrosine kinase receptor; experiment: Inhibition of ALK phosphorylation in mouse xenografted with human KARPAS299 cells assessed as p-ALK level at 25 mg/kg, po administered as single dose measured after 24 hrs relative to 2 hrs vehicle-treated tumor; assay type: organism-based; design: scale not given: the % may be the effect or the level left; conditions: KARPAS-299
[22] = Tmax in CD rat at 10 mg/kg, po by LC-MS/MS analysis; assay type: ADME, organism-based; conditions: in vivo
KARPAS-299 [23] = experiment: Antitumor activity against human KARPAS299 cells xenografted in SCID/beige mouse assessed as tumor growth inhibition administered orally once daily for 13 days relative to untreated control; assay type: functional, cell-based
[24] = molecular target: T1, ALK tyrosine kinase receptor; experiment: Inhibition of ALK phosphorylation in mouse xenografted with human KARPAS299 cells assessed as p-ALK level at 25 mg/kg, po administered as single dose measured after 10 hrs relative to 2 hrs vehicle-treated tumor; assay type: organism-based; design: scale not given: the % may be the effect or the level left; conditions: KARPAS-299
KARPAS-299 [25] = experiment: Antitumor activity against human KARPAS299 cells expressing […] fusion protein xenografted in SCID/beige mouse assessed as tumor stasis at 50 mg/kg, po administered once daily for 13 days; assay type: functional, organism-based
Mus musculus = experiment: Toxicity in SCID/beige mouse xenografted with human KARPAS299 cells expressing […] fusion protein at 50 mg/kg, po administered once daily for 13 days; assay type: organism-based, KARPAS-299; conditions: in vivo, 312 h

Structure (SMILES)	half-life [2] [h]	clearance [3] [mL/min/kg]	half-life [4] [h]	Vd [6] [L/kg]	IC50 (cells [8]) [nM]	AUC(0-t) at 24 h [9] [ng·h/mL]	bioavailability [10] [%]	Activity [11] [%]	IC50 (cells [12]) [nM]	Cmax [13] [ng/mL]	Cmax [14] [ng/mL]	IC50 [15] [nM]	half-life [16] [h]	IC50 (Insulin receptor) [nM]	IC50 [17] [nM]	AUC(0-inf) [19] [ng·h/mL]	AUC(0-inf) [20] [ng·h/mL]	Activity [21] [%]	Tmax [22] [h]	Activity [24] [%]	also measured
COc1cc(N2CCC(O)CC2)ccc1Nc1ncc(Cl)c(Nc2ccccc2P(C)(C)=O)n1	2.7	10.7	2.2	2.74	70.4	13300	64	25	7230	2940	772	0.36	5.6	171	26.9	9720	4550	168	0.25	–	inhibition in vivo at 50 mg/kg (animal or person [1]): 67%; Activity [5]: 41%; inhibition in vivo at 25 mg/kg (animal or person [7]): 85%; inhibition in vivo at 10 mg/kg (animal or person [18]): 96%
COc1cc(N2CCN(C)CC2)ccc1Nc1ncc(Cl)c(Nc2ccccc2P(C)(C)=O)n1	12.5	15.2	2.7	6.12	28.3	5180	39	14	1590	418	254	0.18	6.6	90.6	20.3	4060	3090	94	6	2	inhibition in vivo at 50 mg/kg (animal or person [1]): 1.4%; TGI (KARPAS-299 [23]): Dose-dependent effect; inhibition in vivo at 25 mg/kg (animal or person [7]): 41%; inhibition in vivo at 10 mg/kg (animal or person [18]): 81%; Activity (KARPAS-299 [25]): Active; Activity (Mus musculus): Non-toxic
COc1cc(OC2CCN(C)CC2)ccc1Nc1ncc(Cl)c(Nc2ccccc2P(C)(C)=O)n1	3.9	9.83	1.6	2.89	55.5	951	55	125	4520	184	659	0.54	3.6	343	86.5	9220	5040	160	4	23	–
COc1cc(C2CCN(C)CC2)ccc1Nc1ncc(Cl)c(Nc2ccccc2P(C)(C)=O)n1	2.5	31.8	5	8.55	19.2	3450	110	69	3560	421	601	0.38	4	57.2	8.2	5670	1550	118	4	1	–
